Where “and” joins values, the source holds several entries; their conditions need not be identical. Identical values can stand only once. Like-named read-outs stand apart in the source and are kept apart here.
What was measured:
[1] = tested on: 60 cancer cell lines (NCI 60 cancer cell line series); test: NCI-DTP in vitro cancer screen, sulforhodamine B (SRB) growth inhibition, 48 hour exposure; assay type: cell-based, human; design: key to sensitivity class Ovarian OVCAR-8 CL6005 / sensitivity class Ovarian SK-OV-3 CL6011 / sensitivity class Prostate DU-145 CL11003 / sensitivity class NSCLC NCI-H522 CL1003 / sensitivity class Ovarian IGROV1 CL6010 / sensitivity class Ovarian OVCAR-4 CL6002 / sensitivity class Prostate PC-3(I) CL11001 / sensitivity class Renal A498 CL9013 / sensitivity class Renal SN12C CL9008: sensitivity class: 1 = Low, 2 = Medium, 3 = High
Procedure, shortened: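 Values come from the NCI-DTP screen database: -log GI50, the concentration giving 50% growth inhibition, derived from SRB cell-mass dose-response curves. Each line seeded at its own density, treated day 1 at five ten-fold-spaced doses in duplicate wells, stained after 48 h.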

[2] = tested on: 60 cancer cell lines (NCI 60 cancer cell line series); settings: cited from earlier work

CC[C@@]1(O)C(=O)OCc2c1cc1n(c2=O)Cc2cc3c(CN(C)C)c(O)ccc3nc2-1 [Topotecan]
classification of cell line as Low(1), Medium(2) or High(3) sensitivity to compound ([1]; Breast HS-578T CL5006): 1 | classification of cell line as Low(1), Medium(2) or High(3) sensitivity to compound ([1]; Breast MDA-MB-231 CL5005): 1 | classification of cell line as Low(1), Medium(2) or High(3) sensitivity to compound ([1]; Breast MDA-MB-435 (CL5011)): 2 | classification of cell line as Low(1), Medium(2) or High(3) sensitivity to compound ([1]; Breast MDA-N CL5012): 2 | classification of cell line as Low(1), Medium(2) or High(3) sensitivity to compound ([1]; Breast T-47D (CL5014)): 3 | classification of cell line as Low(1), Medium(2) or High(3) sensitivity to compound ([1]; CNS SF-268 CL12014): 3 | classification of cell line as Low(1), Medium(2) or High(3) sensitivity to compound ([1]; CNS SF-539 CL12016): 3 | classification of cell line as Low(1), Medium(2) or High(3) sensitivity to compound ([1]; CNS SNB-19 (CL12002)): 2 | classification of cell line as Low(1), Medium(2) or High(3) sensitivity to compound ([1]; CNS SNB-75(I) CL12005): 2 | classification of cell line as Low(1), Medium(2) or High(3) sensitivity to compound ([1]; Colon COLO-250 CL4010): 1 | classification of cell line as Low(1), Medium(2) or High(3) sensitivity to compound ([1]; Colon HCT-15 CL4015): 1 | classification of cell line as Low(1), Medium(2) or High(3) sensitivity to compound ([1]; Colon HCT-116 (CL4003)): 2 | classification of cell line as Low(1), Medium(2) or High(3) sensitivity to compound ([1]; Colon HT29(I) CL4001): 2 | classification of cell line as Low(1), Medium(2) or High(3) sensitivity to compound ([1]; Colon SW-620 (CL4009)): 2 | classification of cell line as Low(1), Medium(2) or High(3) sensitivity to compound ([1]; Leukemia CCRF-CEM(I) (CL7003)): 3 | classification of cell line as Low(1), Medium(2) or High(3) sensitivity to compound ([1]; Leukemia K562(I) CL7005): 2 | classification of cell line as Low(1), Medium(2) or High(3) sensitivity to compound ([1]; Leukemia MOLT-4 (CL7006)): 3 | classification of cell line as Low(1), Medium(2) or High(3) sensitivity to compound ([1]; Leukemia RPMI-8226(I) (CL7010)): 2 | classification of cell line as Low(1), Medium(2) or High(3) sensitivity to compound ([1]; Melanoma LOX IMVI CL10001): 3 | classification of cell line as Low(1), Medium(2) or High(3) sensitivity to compound ([1]; Melanoma MALME-3M CL10002): 2 | classification of cell line as Low(1), Medium(2) or High(3) sensitivity to compound ([1]; Melanoma SK-MEL-2 (CL10005)): 1 | classification of cell line as Low(1), Medium(2) or High(3) sensitivity to compound ([1]; Melanoma SK-MEL-5 (CL10007)): 2 | classification of cell line as Low(1), Medium(2) or High(3) sensitivity to compound ([1]; Melanoma SK-MEL-28 (CL10008)): 1 | classification of cell line as Low(1), Medium(2) or High(3) sensitivity to compound ([1]; Melanoma UACC-257 (CL10021)): 2 | classification of cell line as Low(1), Medium(2) or High(3) sensitivity to compound ([1]; NSCLC A549/ATCC (CL1004)): 2 | classification of cell line as Low(1), Medium(2) or High(3) sensitivity to compound ([1]; NSCLC HOP-62 (CL1026)): 3 | classification of cell line as Low(1), Medium(2) or High(3) sensitivity to compound ([1]; NSCLC HOP-92 (CL1029)): 2 | classification of cell line as Low(1), Medium(2) or High(3) sensitivity to compound ([1]; NSCLC NCI-H226 CL1013): 2 | sensitivity class NSCLC NCI-H23(I) CL1001 ([1]; cell line NSCLC NCI-H23(I), CL1001): 2 | sensitivity class NSCLC NCI-H460 CL1021 ([1]; cell line NSCLC NCI-H460, CL1021): 3 | sensitivity class NSCLC NCI-H522 CL1003 ([1]; cell line NSCLC NCI-H522, CL1003): 2 | sensitivity class Ovarian OVCAR-4 CL6002 ([1]; cell line Ovarian OVCAR-4, CL6002): 1 | sensitivity class Ovarian OVCAR-5 CL6003 ([1]; cell line Ovarian OVCAR-5, CL6003): 2 | sensitivity class Ovarian OVCAR-8 CL6005 ([1]; cell line Ovarian OVCAR-8, CL6005): 2 | sensitivity class Ovarian SK-OV-3 CL6011 ([1]; cell line Ovarian SK-OV-3, CL6011): 2 | sensitivity class Prostate DU-145 CL11003 ([1]; cell line Prostate DU-145, CL11003): 3 | sensitivity class Prostate PC-3(I) CL11001 ([1]; cell line Prostate PC-3(I), CL11001): 2 | sensitivity class Renal 786-O CL9018 ([1]; cell line Renal 786-O, CL9018): 3 | sensitivity class Renal A498 CL9013 ([1]; cell line Renal A498, CL9013): 2 | sensitivity class Renal ACHN CL9023 ([1]; cell line Renal ACHN, CL9023): 3 | sensitivity class Renal CAKI-1 CL9015 ([1]; cell line Renal CAKI-1, CL9015): 3 | sensitivity class Renal RXF-393 CL9016 ([1]; cell line Renal RXF-393, CL9016): 2 | sensitivity class Renal TK10 CL9024 ([1]; cell line Renal TK10, CL9024): 1 | sensitivity class Renal UO-31 CL9004 ([1]; cell line Renal UO-31, CL9004): 2 | -Log (GI50) ([2]; Breast MCF7(I) (CL5001)): 8.0 and 7.8 | -Log (GI50) ([2]; Breast T-47D (CL5014)): 8.0 and 7.7 | -Log (GI50) ([2]; CNS SF-268 CL12014): 7.7 | -Log (GI50) ([2]; CNS SF-539 CL12016): 7.7 and 7.8 | -Log (GI50) ([2]; CNS SNB-19 (CL12002)): 7.5 and 7.6 | -Log (GI50) ([2]; CNS U251(I) CL12009): 7.5 and 7.8 | -Log (GI50) ([2]; Colon HCT-15 CL4015): 6.2 and 6.3 | -Log (GI50) ([2]; Colon KM12 (CL4017)): 6.5 and 6.4 | -Log (GI50) ([2]; Leukemia CCRF-CEM(I) (CL7003)): 7.9 | -Log (GI50) ([2]; Leukemia MOLT-4 (CL7006)): 7.9 | -Log (GI50) ([2]; Melanoma LOX IMVI CL10001): 7.7 and 7.8 | -Log (GI50) ([2]; Melanoma M14 (CL10014)): 7.5 and 7.8 | -Log (GI50) ([2]; Melanoma SK-MEL-2 (CL10005)): 5.7 and 6.0 | -Log (GI50) ([2]; Melanoma SK-MEL-5 (CL10007)): 7.2 and 7.5 | -Log (GI50) ([2]; Melanoma UACC-62 (CL10020)): 7.8 and 7.7 | -Log (GI50) ([2]; NCSLC NCI-H522 CL1003): 7.3 and 7.5 | -Log (GI50) ([2]; NSCLC A549/ATCC (CL1004)): 7.0 and 7.3 | -Log (GI50) ([2]; NSCLC HOP-62 (CL1026)): 7.9 | -Log (GI50) ([2]; NSCLC NCI-H23(I) CL1001): 7.4 | -Log (GI50) ([2]; NSCLC NCI-H460 CL1021): 7.7 | -Log (GI50) ([2]; Ovarian IGROV1 CL6010): 6.3 and 6.4 | -Log (GI50) ([2]; Ovarian SK-OV-3 CL6011): 7.1 and 7.2 | -Log (GI50) ([2]; Prostate DU-145 CL11003): 8.0 and 7.8 | -Log (GI50) ([2]; Renal A498 CL9013): 6.7 and 7.0 | -Log (GI50) ([2]; Renal ACHN CL9023): 7.7 and 7.8 | -Log (GI50) ([2]; Renal CAKI-1 CL9015): 7.9 and 7.8 | -Log (GI50) ([2]; Renal SN12C CL9008): 7.6 and 7.5 | -Log (GI50) ([2]; Renal TK10 CL9024): 5.1 and 5.3 | -Log (GI50) ([2]; Renal UO-31 CL9004): 7.0 and 7.2

From US20020051978A1, “Methods and compositions for the identification, assessment, prevention and therapy of human cancers” (priority 2000, published 2002)
